Test system: NCI-H1341 complex spheroids, percent test/control
Experiment: Anticancer human tumor NCI-H1341 cell line growth inhibition [AhR];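 note: spheroids exposed to agents for seven days before readout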
Settings: for IC50: curve of first compound; for viability, T/C: stronger effect = lower value
Outline: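 Complex tumor spheroids co-cultured with HUVEC and human MSC stroma; AhR antagonists tested in combination with standard-of-care and investigational agents. Top concentration at or near clinical Cmax (else 10 microM), half-log dilutions; growth expressed as percent test/control.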

[1] = second compound 0.1 µM, first compound 0.0316 µM
[2] = second compound 0.1 µM, first compound 0.1 µM
[3] = second compound 0.1 µM, first compound 0.316 µM
[4] = second compound 0.1 µM, first compound 1 µM
[5] = second compound 0.1 µM, first compound 3.16 µM
[6] = second compound 0.1 µM, first compound 10 µM
[7] = second compound 0.316 µM, first compound 0.0316 µM
[8] = second compound 0.316 µM, first compound 0.1 µM
[9] = second compound 0.316 µM, first compound 0.316 µM
[10] = second compound 0.316 µM, first compound 1 µM
[11] = second compound 0.316 µM, first compound 3.16 µM
[12] = second compound 0.316 µM, first compound 10 µM
[13] = second compound 1 µM, first compound 0.0316 µM
[14] = second compound 1 µM, first compound 0.1 µM
[15] = second compound 1 µM, first compound 0.316 µM
[16] = second compound 1 µM, first compound 1 µM
[17] = second compound 1 µM, first compound 3.16 µM
[18] = second compound 1 µM, first compound 10 µM
[19] = second compound 3.16 µM, first compound 0.0316 µM
[20] = second compound 3.16 µM, first compound 0.1 µM
[21] = second compound 3.16 µM, first compound 0.316 µM
[22] = second compound 3.16 µM, first compound 1 µM
[23] = second compound 3.16 µM, first compound 3.16 µM
[24] = second compound 3.16 µM, first compound 10 µM
[25] = second compound 10 µM, first compound 0.0316 µM
[26] = second compound 10 µM, first compound 0.1 µM
[27] = second compound 10 µM, first compound 0.316 µM
[28] = second compound 10 µM, first compound 1 µM
[29] = second compound 10 µM, first compound 3.16 µM
[30] = second compound 10 µM, first compound 10 µM
[31] = second compound 0.1 µM, first compound 0.00316 µM
[32] = second compound 0.1 µM, first compound 0.01 µM
[33] = second compound 0.316 µM, first compound 0.00316 µM
[34] = second compound 0.316 µM, first compound 0.01 µM
[35] = second compound 1 µM, first compound 0.00316 µM
[36] = second compound 1 µM, first compound 0.01 µM
[37] = second compound 3.16 µM, first compound 0.00316 µM
[38] = second compound 3.16 µM, first compound 0.01 µM
[39] = second compound 10 µM, first compound 0.00316 µM
[40] = second compound 10 µM, first compound 0.01 µM

Compound | IC50 (second compound 0.1 µM) | IC50 (second compound 0.316 µM) | IC50 (second compound 1 µM) | IC50 (second compound 3.16 µM) | IC50 (second compound 10 µM) | viability, T/C [1] | viability, T/C [2] | viability, T/C [3] | viability, T/C [4] | viability, T/C [7] | viability, T/C [8] | viability, T/C [9] | viability, T/C [10] | viability, T/C [13] | viability, T/C [14] | viability, T/C [15] | viability, T/C [19] | viability, T/C [20] | viability, T/C [25] | viability, T/C [26] | further results
CC(C)c1c(-c2ccccc2)nc2c(C#N)c[nH]n2c1=O + Cc1ccccc1N=Nc1ccc(NC(=O)c2ccnn2C)c(C)c1 | > 10000 nM | > 10000 nM | > 10000 nM | > 10000 nM | < 31.6 nM | 84.2% | 87.6% | 86.5% | 87.5% | 99% | 82.8% | 84.2% | 92.2% | 90.1% | 93.8% | 74% | 72.2% | 77.1% | 44.9% | 49% | viability, T/C [5]: 81.7%; viability, T/C [6]: 96.4%; viability, T/C [11]: 97.5%; viability, T/C [12]: 83.2%; viability, T/C [16]: 81.7%; viability, T/C [17]: 83.8%; viability, T/C [18]: 95.7%; viability, T/C [21]: 59.5%; viability, T/C [22]: 72.2%; viability, T/C [23]: 73.3%; viability, T/C [24]: 76.4%; viability, T/C [27]: 52%; viability, T/C [28]: 48.6%; viability, T/C [29]: 59.3%; viability, T/C [30]: 42.9%
CC[C@@]1(O)C(=O)OCc2c1cc1n(c2=O)Cc2cc3c(CN(C)C)c(O)ccc3nc2-1 + Cc1cncc(-c2nc(NCCc3c[nH]c4ccccc34)c3ncn(C(C)C)c3n2)c1 | 23.6 nM | 21.4 nM | 18.7 nM | 7.91 nM | < 0.316 nM | 42.5% | 38.4% | – | – | 43.5% | 38.2% | – | – | 40.9% | 32.2% | – | 37.1% | 35.5% | 19.2% | 15.1% | viability, T/C (second compound 0.1 µM, first compound 0.000316 µM): 90.4%; viability, T/C (second compound 0.1 µM, first compound 0.001 µM): 81.1%; viability, T/C [31]: 69.8%; viability, T/C [32]: 64%; viability, T/C (second compound 0.316 µM, first compound 0.000316 µM): 67.3%; viability, T/C (second compound 0.316 µM, first compound 0.001 µM): 76.8%; viability, T/C [33]: 75.5%; viability, T/C [34]: 63.2%; viability, T/C (second compound 1 µM, first compound 0.000316 µM): 68.8%; viability, T/C (second compound 1 µM, first compound 0.001 µM): 76.1%; viability, T/C [35]: 77.2%; viability, T/C [36]: 60.8%; viability, T/C (second compound 3.16 µM, first compound 0.000316 µM): 72.9%; viability, T/C (second compound 3.16 µM, first compound 0.001 µM): 74.8%; viability, T/C [37]: 66.6%; viability, T/C [38]: 45.7%; viability, T/C (second compound 10 µM, first compound 0.000316 µM): 25.8%; viability, T/C (second compound 10 µM, first compound 0.001 µM): 24.8%; viability, T/C [39]: 24.9%; viability, T/C [40]: 18%
COc1cc(C2c3cc4c(cc3C(OC3OC5COC(C)OC5C(O)C3O)C3COC(=O)C23)OCO4)cc(OC)c1O (stereo not given) + Cc1cncc(-c2nc(NCCc3c[nH]c4ccccc34)c3ncn(C(C)C)c3n2)c1 | 416 nM | 611 nM | 283 nM | 233 nM | < 31.6 nM | 74.3% | 89.4% | 54.7% | 36.6% | 79.5% | 76.3% | 62.2% | 40.9% | 74.9% | 72.9% | 47.6% | 76.1% | 61.4% | 30.6% | 27.4% | viability, T/C [5]: 34.1%; viability, T/C [6]: 34%; viability, T/C [11]: 35.1%; viability, T/C [12]: 34.2%; viability, T/C [16]: 36%; viability, T/C [17]: 40.5%; viability, T/C [18]: 34.2%; viability, T/C [21]: 41.7%; viability, T/C [22]: 44%; viability, T/C [23]: 35.7%; viability, T/C [24]: 32.7%; viability, T/C [27]: 23.1%; viability, T/C [28]: 23.5%; viability, T/C [29]: 14%; viability, T/C [30]: 14.1%
COc1cccc2c1C(=O)c1c(O)c3c(c(O)c1C2=O)CC(O)(C(=O)CO)CC3OC1CC(N)C(O)C(C)O1 (stereo not given) + Cc1cncc(-c2nc(NCCc3c[nH]c4ccccc34)c3ncn(C(C)C)c3n2)c1 | < 31.6 nM | < 31.6 nM | < 31.6 nM | < 31.6 nM | < 31.6 nM | 51% | 43% | 33.4% | 16% | 43.4% | 39.2% | 34.8% | 13% | 39.5% | 37.5% | 28.9% | 38.9% | 35% | 16.8% | 16.6% | viability, T/C [5]: 0.94%; viability, T/C [6]: 5.91%; viability, T/C [11]: 0.92%; viability, T/C [12]: 4.49%; viability, T/C [16]: 10.9%; viability, T/C [17]: 1.66%; viability, T/C [18]: 4.68%; viability, T/C [21]: 27.1%; viability, T/C [22]: 5.93%; viability, T/C [23]: 2.35%; viability, T/C [24]: 6.56%; viability, T/C [27]: 14.3%; viability, T/C [28]: 2.4%; viability, T/C [29]: 6.71%; viability, T/C [30]: 5.96%
Nc1ccn(C2OC(CO)C(O)C2(F)F)c(=O)n1 (stereo not given) + Cc1cncc(-c2nc(NCCc3c[nH]c4ccccc34)c3ncn(C(C)C)c3n2)c1 | < 31.6 nM | < 31.6 nM | < 31.6 nM | < 31.6 nM | < 31.6 nM | 28.4% | 28.2% | 25.5% | 25.2% | 30.6% | 28.5% | 25.9% | 25.6% | 29.2% | 31.7% | 27.9% | 32.8% | 27.1% | 36.6% | 23.7% | viability, T/C [5]: 27.6%; viability, T/C [6]: 20.8%; viability, T/C [11]: 22.7%; viability, T/C [12]: 21.5%; viability, T/C [16]: 26.4%; viability, T/C [17]: 24.3%; viability, T/C [18]: 20.9%; viability, T/C [21]: 28.5%; viability, T/C [22]: 27%; viability, T/C [23]: 26.8%; viability, T/C [24]: 21.6%; viability, T/C [27]: 28.9%; viability, T/C [28]: 27.3%; viability, T/C [29]: 30.8%; viability, T/C [30]: 23.1%
Nc1ncn(C2CC(O)C(CO)O2)c(=O)n1 (stereo not given) + Cc1cncc(-c2nc(NCCc3c[nH]c4ccccc34)c3ncn(C(C)C)c3n2)c1 | 206 nM | 264 nM | 80.4 nM | 481 nM | < 3.16 nM | 81.4% | 54.7% | 48.8% | 28.1% | 78.2% | 55.6% | 52.1% | 27.9% | 68% | 45.3% | 45.9% | 69.2% | 70.2% | 21.3% | 19.5% | viability, T/C [31]: 83%; viability, T/C [32]: 89.2%; viability, T/C [33]: 75.5%; viability, T/C [34]: 86.1%; viability, T/C [35]: 73%; viability, T/C [36]: 82.7%; viability, T/C [16]: 33.3%; viability, T/C [37]: 71.4%; viability, T/C [38]: 72%; viability, T/C [21]: 53.7%; viability, T/C [22]: 38%; viability, T/C [39]: 25.7%; viability, T/C [40]: 26.9%; viability, T/C [27]: 20.1%; viability, T/C [28]: 18.9%
